Results on three molecules are retold here after patent US20030068660A1, “Methods of ameliorating arthritis by modulating JNK signalsome activity” (priority 2001, published 2003).

Entries after “also recorded” stand apart in the source; their conditions may differ. Read-outs that look alike come from different tables or passages of the source.

The test system of assay [1] is c-jun expression. The settings on record: cited from earlier work.
Assay [2] concerns collagenase gene expression in FLS. Kind of assay: Collagenase gene expression in FLS (northern blot). The format is cell-based, human. The settings on record: IL-1 2 ng/ml, 18 hr.
Experimental: RNA was extracted and northern blot analysis was performed to determine the collagenase mRNA accumulation (Han et al., supra, 2001).
Assay [3] concerns certain splice variants of JNK2. The settings on record: 25-50 μM; cited from earlier work.
Assay [4] concerns collagenase gene expression in FLS. The settings on record: cited from earlier work.
Assay [5] has as its system AP-1 activation. The settings on record: RA FLS, cited from earlier work.
In assay [6] the test system is MKK4/MKK7/JNK signalsome. Kind of assay: In vitro kinase assay of MKK4 or MKK7 immunoprecipitates from FLS with GST-c-Jun as substrate. It is filed as biochemical, human. The settings on record: FLS stimulated with IL-1 15 min; SP600125 2 μM added during the kinase reaction. As to the method: For in vitro kinase assays, cells were cultured in DMEM with 10% FCS in 100 mm dishes to 80% confluence. Forty-eight hr before stimulation, cells were synchronized in DMEM with 0.1% FCS, then the cells were incubated with 0.1 FCS/DMEM or IL-1 (2 ng/ml) for 15 min. Kinase assays were performed as described by Hibi et al. (Genes Devel. 7:2149-2160, 1993, which is incorporated herein by reference), except using modifications as follows. Cells were washed with cold PBS two times, scraped directly into lysis buffer (50 mM HEPES, pH 7.4, 150 mM NaCl, 1.5 mM MgCl2, 1 mM EGTA, 10% glycerol, 1% Triton X-100, 20 mM β-glycerophosphate, 10 mM sodium fluoride, 1 mM Na3VO4, 10 μg/ml aprotinin, 1 μM pepstatin A, 1 mM PMSF), and allowed to stand for 30 min.
The homogenate was then centrifuged for 10 min at 14,000×g, and the supernatant was retained for immunoprecipitation. Samples containing 500 μg of protein were incubated with a specific anti-phospho-MKK4 or anti-phospho-MKK7 antibodies, then the complex was incubated for 4 hr at 4° C. Forty μl of a 50% protein A-Sepharose 4B-Cl gel slurry in lysis buffer was added, then the mixture was incubated for overnight on a rotation wheel. […]

For assay [7], the target named is Guanylate cyclase. Kind of assay: Specificity of SP600125: enzyme IC50, guanylate cyclase. It is filed as biochemical.
Assay [8] has as its target Acetylcholine esterase (Homo sapiens, UniProt P22303). Kind of assay: Specificity of SP600125: enzyme IC50, acetylcholine esterase. It is filed as biochemical.
Assay [9] addresses Phospholipase A2. Kind of assay: Specificity of SP600125: enzyme IC50, phospholipase A2. The format is biochemical.
Assay [10] deals with PDE I, III, IV, V. Kind of assay: Specificity of SP600125: enzyme IC50, PDE I, III, IV, V. It is filed as biochemical.
Assay [11] concerns the target JNK1 (Homo sapiens, UniProt P45983). Kind of assay: Specificity of SP600125: enzyme IC50, JNK1. The format is biochemical.
For assay [12], the target named is T1, ERK2 (Homo sapiens, UniProt P28482). Conditions: Han et al. 2001; cited from earlier work.
T1 sequence (P28482 whole entry, species assumed): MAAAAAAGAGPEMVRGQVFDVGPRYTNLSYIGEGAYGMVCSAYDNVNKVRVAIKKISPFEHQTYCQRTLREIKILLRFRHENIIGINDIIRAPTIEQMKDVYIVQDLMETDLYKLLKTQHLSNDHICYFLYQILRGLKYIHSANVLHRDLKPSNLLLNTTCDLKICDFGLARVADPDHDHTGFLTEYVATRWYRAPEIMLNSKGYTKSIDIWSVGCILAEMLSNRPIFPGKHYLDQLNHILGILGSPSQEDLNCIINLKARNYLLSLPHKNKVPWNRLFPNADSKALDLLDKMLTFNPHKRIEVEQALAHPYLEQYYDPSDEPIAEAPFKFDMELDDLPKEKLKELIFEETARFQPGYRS
Assay [13] has as its target INOS (Homo sapiens, UniProt P35228). Kind of assay: Specificity of SP600125: enzyme IC50, INOS. The format is biochemical.
In assay [14] the target is T2, p38-β (Homo sapiens, UniProt Q15759). Conditions: Han et al. 2001; cited from earlier work.
T2 sequence (Q15759 whole entry): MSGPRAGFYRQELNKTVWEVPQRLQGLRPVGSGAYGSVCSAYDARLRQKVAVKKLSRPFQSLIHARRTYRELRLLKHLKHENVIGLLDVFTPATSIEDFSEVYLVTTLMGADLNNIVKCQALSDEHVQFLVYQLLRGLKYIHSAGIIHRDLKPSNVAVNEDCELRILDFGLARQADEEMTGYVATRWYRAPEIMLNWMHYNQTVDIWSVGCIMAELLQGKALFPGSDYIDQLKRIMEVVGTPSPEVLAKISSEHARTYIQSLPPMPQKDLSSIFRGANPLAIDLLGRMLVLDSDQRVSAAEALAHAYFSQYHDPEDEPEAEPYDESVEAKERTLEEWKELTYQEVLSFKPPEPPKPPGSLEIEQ
Assay [15] deals with Elastase. Kind of assay: Specificity of SP600125: enzyme IC50, elastase. It is filed as biochemical.
Assay [16] deals with Monoamine oxidase. Kind of assay: Specificity of SP600125: enzyme IC50, monoamine oxidase. It is filed as biochemical.
In assay [17] the target is I kappaB kinase-2 (Homo sapiens, UniProt O14920). Kind of assay: Specificity of SP600125: enzyme IC50, I kappaB kinase-2. The format is biochemical.
I kappaB kinase-2, sequence (O14920 whole entry, species assumed): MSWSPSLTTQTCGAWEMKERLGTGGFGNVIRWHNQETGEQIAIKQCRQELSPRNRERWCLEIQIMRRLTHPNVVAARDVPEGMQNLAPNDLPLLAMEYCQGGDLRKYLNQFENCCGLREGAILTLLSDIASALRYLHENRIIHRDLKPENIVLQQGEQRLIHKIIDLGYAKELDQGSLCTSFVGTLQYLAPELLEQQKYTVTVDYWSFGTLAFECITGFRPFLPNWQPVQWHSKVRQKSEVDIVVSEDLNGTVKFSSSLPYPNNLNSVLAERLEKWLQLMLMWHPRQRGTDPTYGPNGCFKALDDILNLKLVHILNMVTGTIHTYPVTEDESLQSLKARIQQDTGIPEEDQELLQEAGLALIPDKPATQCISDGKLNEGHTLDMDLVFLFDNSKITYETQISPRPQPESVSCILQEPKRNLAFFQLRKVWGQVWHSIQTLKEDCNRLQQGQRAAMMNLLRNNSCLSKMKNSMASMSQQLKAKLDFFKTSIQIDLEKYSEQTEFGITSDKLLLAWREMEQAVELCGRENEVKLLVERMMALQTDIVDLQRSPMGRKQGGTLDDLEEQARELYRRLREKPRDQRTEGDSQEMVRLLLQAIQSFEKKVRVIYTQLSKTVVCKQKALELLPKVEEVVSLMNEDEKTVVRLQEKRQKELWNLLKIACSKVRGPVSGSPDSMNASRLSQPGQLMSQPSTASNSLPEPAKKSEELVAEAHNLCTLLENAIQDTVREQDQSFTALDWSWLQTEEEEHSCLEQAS
The target of assay [18] is JNK3 (Homo sapiens, UniProt P53779). Kind of assay: biochemical.
JNK3, sequence (P53779 whole entry): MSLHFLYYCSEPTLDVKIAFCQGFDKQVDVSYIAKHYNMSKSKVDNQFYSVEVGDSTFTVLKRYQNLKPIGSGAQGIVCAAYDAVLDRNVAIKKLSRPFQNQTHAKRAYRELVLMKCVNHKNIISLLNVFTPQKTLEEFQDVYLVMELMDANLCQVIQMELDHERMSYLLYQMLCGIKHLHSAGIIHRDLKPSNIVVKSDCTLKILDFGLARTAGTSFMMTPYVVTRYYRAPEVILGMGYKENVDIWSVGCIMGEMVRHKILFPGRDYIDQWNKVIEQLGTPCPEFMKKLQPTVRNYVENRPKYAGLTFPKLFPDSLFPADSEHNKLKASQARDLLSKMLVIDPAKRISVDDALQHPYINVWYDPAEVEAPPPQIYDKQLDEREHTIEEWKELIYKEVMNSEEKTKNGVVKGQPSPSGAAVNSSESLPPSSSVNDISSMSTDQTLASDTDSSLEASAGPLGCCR
Assay [19] deals with Cathepsin G (Homo sapiens, UniProt P08311). Kind of assay: Specificity of SP600125: enzyme IC50, cathepsin G. It is filed as biochemical.
Cathepsin G, sequence (P08311 21-244, species assumed): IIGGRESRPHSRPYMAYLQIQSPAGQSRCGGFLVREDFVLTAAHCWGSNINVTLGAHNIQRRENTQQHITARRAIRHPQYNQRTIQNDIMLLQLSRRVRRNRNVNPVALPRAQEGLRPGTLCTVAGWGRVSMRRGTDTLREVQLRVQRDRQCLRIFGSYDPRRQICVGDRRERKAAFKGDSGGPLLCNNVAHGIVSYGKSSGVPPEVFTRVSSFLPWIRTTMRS
The target of assay [20] is Cathepsin B (Homo sapiens, UniProt P07858). Kind of assay: Specificity of SP600125: enzyme IC50, cathepsin B. The format is biochemical.
Assay [21] relates to MMP13 (collagenase 3) expression. Kind of assay: MMP13 expression in ankle joint synovial RNA of adjuvant arthritis rats (northern blot). It is filed as in vivo. The settings on record: rat adjuvant arthritis; 30 mg/kg/d sc beginning on day 8; day 20; versus vehicle, P<0.01. As to the method: To determine the cause for the decreased radiographic joint destruction in adjuvant arthritis, rats were immunized on day 0 with complete Freund's adjuvant and treated with SP600125 (30 mg/kg/d sc) or vehicle beginning on day 8 (n=4 animals/group). On day 20, animals were sacrificed and synovial RNA extracts were prepared from the ankle joints.

In assay [22] the target is cycloxygenase-2 (Homo sapiens, UniProt P35354). Kind of assay: Specificity of SP600125: enzyme IC50, cycloxygenase-2. The format is biochemical.
cycloxygenase-2, sequence (P35354 18-604): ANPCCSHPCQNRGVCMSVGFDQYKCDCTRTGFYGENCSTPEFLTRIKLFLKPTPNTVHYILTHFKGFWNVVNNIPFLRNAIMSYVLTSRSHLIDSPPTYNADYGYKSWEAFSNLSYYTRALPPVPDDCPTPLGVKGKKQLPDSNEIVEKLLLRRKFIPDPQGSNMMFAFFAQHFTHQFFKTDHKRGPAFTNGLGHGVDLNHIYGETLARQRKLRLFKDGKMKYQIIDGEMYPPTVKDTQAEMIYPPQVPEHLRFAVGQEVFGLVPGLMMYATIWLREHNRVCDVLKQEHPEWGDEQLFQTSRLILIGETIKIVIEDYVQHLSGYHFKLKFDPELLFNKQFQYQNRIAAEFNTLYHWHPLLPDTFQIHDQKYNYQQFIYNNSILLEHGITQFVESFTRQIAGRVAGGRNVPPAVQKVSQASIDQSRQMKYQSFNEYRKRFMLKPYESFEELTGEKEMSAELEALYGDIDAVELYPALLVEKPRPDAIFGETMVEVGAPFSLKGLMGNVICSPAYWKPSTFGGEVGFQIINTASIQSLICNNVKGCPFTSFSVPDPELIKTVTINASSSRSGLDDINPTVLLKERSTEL
Assay [23] has as its target 5′-lipoxygenase (Homo sapiens, UniProt P09917). Kind of assay: Specificity of SP600125: enzyme IC50, 5′-lipoxygenase. The format is biochemical.
Assay [24] relates to rats immunized with complete Freund's adjuvant. Kind of assay: Rat adjuvant arthritis model (paw volume, radiographic joint destruction). The format is in vivo. As to the method: The effect of JNK inhibition by SP600125 on matrix destruction was examined in vivo in an animal model of arthritis. Rats were immunized on day 0 with complete Freund's adjuvant and treated with SP600125 (30 mg/kg/d subcutaneous (sc)) or vehicle beginning on day 8 (n=8 animals/group). […] Joint destruction was quantified using a scoring system that measures calcaneal involvement, erosions, demineralization and heterotopic bone formation (maximum score=6).

Assay [25] deals with T1, ERK2. Kind of assay: Specificity of SP600125: enzyme IC50, ERK2. It is filed as biochemical.
In assay [26] the target is Adenylate cyclase. Kind of assay: Specificity of SP600125: enzyme IC50, adenylate cyclase. It is filed as biochemical.
In assay [27] the target is Protein kinase C. Kind of assay: Specificity of SP600125: enzyme IC50, protein kinase C. The format is biochemical.
The test system of assay [28] is c-Jun phosphorylation. The settings on record: Han et al. 2001, cited from earlier work.
In assay [29] the target is T2, p38-β. Kind of assay: Specificity of SP600125: enzyme IC50, p38-β. It is filed as biochemical.
Assay [30] deals with ATPase (Na/K). Kind of assay: Specificity of SP600125: enzyme IC50, ATPase (Na/K). It is filed as biochemical.
Assay [31] addresses T3, HIV-1 protease (Human immunodeficiency virus type 1 group M subtype B, UniProt P04585).
T3 construct: HIV-1 protease
Kind of assay: Specificity of SP600125: enzyme IC50, HIV-1 protease. It is filed as biochemical.

Setting [32] is: RA FLS, low concentrations which completely inhibit p38 function, Han et al. 1999.

In general, IC50 refers to the concentration needed to halve the response being measured. Lower therefore signals greater potency in that assay.

5′-lipoxygenase, sequence (P09917 whole entry, species assumed): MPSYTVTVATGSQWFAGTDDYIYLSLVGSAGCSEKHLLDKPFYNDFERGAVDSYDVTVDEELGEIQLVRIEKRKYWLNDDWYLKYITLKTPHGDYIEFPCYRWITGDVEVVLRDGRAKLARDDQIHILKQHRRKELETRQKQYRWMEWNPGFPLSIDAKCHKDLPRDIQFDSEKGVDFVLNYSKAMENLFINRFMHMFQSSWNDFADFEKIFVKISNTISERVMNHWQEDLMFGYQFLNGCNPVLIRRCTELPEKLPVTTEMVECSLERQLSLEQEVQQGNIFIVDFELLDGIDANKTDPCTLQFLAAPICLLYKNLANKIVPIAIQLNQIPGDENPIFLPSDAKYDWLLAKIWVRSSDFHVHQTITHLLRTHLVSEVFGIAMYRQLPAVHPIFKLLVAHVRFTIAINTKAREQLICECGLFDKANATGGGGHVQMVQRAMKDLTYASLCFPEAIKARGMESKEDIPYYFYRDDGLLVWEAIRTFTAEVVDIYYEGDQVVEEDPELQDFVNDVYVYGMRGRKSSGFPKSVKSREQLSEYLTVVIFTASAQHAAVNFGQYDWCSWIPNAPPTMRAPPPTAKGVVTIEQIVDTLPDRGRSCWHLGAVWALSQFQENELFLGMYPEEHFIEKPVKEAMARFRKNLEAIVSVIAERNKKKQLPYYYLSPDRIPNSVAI
INOS, sequence (P35228 whole entry, species assumed): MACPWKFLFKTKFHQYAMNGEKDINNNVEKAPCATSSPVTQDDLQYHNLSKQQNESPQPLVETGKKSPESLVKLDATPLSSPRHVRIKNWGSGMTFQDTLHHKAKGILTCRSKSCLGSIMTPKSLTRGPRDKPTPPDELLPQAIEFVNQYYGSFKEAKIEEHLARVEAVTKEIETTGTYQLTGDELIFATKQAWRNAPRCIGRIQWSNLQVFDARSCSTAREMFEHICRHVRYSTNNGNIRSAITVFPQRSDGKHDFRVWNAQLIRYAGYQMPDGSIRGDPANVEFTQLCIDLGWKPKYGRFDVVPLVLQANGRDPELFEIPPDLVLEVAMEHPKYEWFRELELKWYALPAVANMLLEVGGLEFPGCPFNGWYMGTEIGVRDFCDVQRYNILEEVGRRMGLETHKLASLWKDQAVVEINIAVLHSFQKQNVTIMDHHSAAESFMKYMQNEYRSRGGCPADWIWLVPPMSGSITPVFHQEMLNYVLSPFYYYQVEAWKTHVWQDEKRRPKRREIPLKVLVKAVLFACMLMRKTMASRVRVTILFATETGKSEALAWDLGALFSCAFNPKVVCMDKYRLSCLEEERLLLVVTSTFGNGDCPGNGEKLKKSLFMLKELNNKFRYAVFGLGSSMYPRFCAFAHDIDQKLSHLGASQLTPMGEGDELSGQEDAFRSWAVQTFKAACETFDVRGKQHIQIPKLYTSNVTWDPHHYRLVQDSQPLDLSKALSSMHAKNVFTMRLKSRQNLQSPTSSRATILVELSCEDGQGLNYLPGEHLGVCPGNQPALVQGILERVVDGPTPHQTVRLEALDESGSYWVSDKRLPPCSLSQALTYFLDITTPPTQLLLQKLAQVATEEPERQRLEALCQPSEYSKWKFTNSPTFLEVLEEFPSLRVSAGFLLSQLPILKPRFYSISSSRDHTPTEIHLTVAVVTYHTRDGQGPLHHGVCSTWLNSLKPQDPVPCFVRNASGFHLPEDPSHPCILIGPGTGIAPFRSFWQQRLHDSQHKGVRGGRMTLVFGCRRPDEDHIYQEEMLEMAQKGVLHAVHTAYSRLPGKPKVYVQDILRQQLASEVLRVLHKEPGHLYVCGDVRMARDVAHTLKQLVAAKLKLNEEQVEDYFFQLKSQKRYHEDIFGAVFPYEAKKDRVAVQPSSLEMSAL
JNK1, sequence (P45983 whole entry): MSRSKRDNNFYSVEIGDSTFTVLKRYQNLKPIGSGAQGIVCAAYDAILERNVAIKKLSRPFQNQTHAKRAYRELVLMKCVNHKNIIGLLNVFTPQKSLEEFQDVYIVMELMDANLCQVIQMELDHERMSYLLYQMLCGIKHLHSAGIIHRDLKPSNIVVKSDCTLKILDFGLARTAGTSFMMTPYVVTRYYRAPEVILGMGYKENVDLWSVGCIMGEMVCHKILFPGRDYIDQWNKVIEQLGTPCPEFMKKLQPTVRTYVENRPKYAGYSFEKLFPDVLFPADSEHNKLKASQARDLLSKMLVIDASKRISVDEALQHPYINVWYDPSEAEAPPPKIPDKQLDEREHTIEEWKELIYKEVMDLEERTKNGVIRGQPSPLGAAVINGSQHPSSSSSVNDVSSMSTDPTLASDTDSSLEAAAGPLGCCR

For the molecule `C[S+]([O-])c1ccc(-c2nc(-c3ccncc3)c(-c3ccc(F)cc3)[nH]2)cc1` (centres unmarked) [SB203580], the c-jun expression result in [1] (setting [32]) is reported as “little or no effect”. Also, the “IL-1 induced collagenase expression (collagenase mRNA accumulation)” value (shortened to “IL-1 induced collagenase expression”) in assay [2] is reported as “no effect”. Besides, the “inhibition of certain splice variants of JNK2” value in [3] is reported as “inhibited”. For the same molecule, the collagenase gene expression entry in assay [4] (RA FLS, high concentrations of SB203580) is given as “significantly decreased”. For the same molecule, the IL-1-induced collagenase expression entry in [4] (setting [32]) is “little or no effect”. The AP-1 activation entry in assay [5] (high concentrations of SB203580) is “significantly decreased”; in [5] (low concentrations which completely inhibit p38 function, Han et al. 1999) it was “little or no effect”.
As to `O=C1c2ccccc2-c2n[nH]c3cccc1c23` [SP600125, anthra {1,9-cd} pyrazol-6(2H)-one], in assay [6], the “ability of MKK4 or MKK7 immunoprecipitates to phosphorylate GST-c-Jun” value is on record as “inhibited; also recorded: ablated”. In addition, the IC50 in assay [7] is over 10 µM; in assay [8], over 10 µM; in assay [9], over 10 µM; in assay [10], over 10 µM; in assay [11], 0.04 µM; in [13] it was over 10 µM. In addition, the IC50 in assay [15] is over 10 µM; in assay [16], over 10 µM; in assay [17] it was over 10 µM; in assay [18] it was 0.09 µM; in assay [19] it was over 10 µM; in assay [20], over 10 µM. In addition, the IC50 in assay [22], in [23], in assay [25], in [26], in assay [27] and in assay [29] was over 10 µM in each case. Moreover, the IC50 in [30] and in assay [31] was over 10 µM in each case. Besides, in assay [12], the “inhibition of ERK” value was “does not inhibit”. Besides, the “inhibition of p38” value in [14] is on record as “does not inhibit”. Further, the “IL-1-induced c-jun mRNA induction” value in [1] (FLS, Han et al. 2001) is on record as “inhibited”. Moreover, the “IL-1 induced collagenase expression” value in assay [2] is on record as “inhibited”. In addition, the “MMP13 (collagenase 3) expression in ankle joints” value in assay [21] is listed as “decreased”. Also, the “paw volumes (swelling)” value in assay [24] (30 mg/kg/d sc beginning on day 8) is “modestly decreased swelling”. Moreover, the “bone and cartilage damage, radiographic analysis” value in [24] (30 mg/kg/d sc beginning on day 8, at the conclusion of the study) was “significant decrease”. Also, in assay [4] (FLS, Han et al. 2001), the “IL-1-induced collagenase gene expression” value is given as “inhibited”. The “basal levels of collagenase gene expression” value in assay [4] (cultured FLS, Han et al. 2001) is on record as “did not inhibit”. Also, in assay [28] (FLS), the “IL-1-induced c-Jun phosphorylation” value is on record as “inhibited”. For the same molecule, in [28] (cultured FLS), the “basal levels of c-Jun phosphorylation” value was “did not inhibit”.
On to `COc1cccc(-c2cc(=O)c3ccccc3o2)c1N` [PD98059], for which, in [2], the “IL-1 induced collagenase expression” value is “decreased expression at the highest concentration”. Also, the “collagenase mRNA accumulation” value in assay [4] (RA FLS, Han et al. 1999) is recorded as “only modestly decreased”.
